Measured values taken from ChEMBL document CHEMBL1201862, “PubChem BioAssay data set” (2004).
Values belong to the compound of their own block, whether it stands above or below them. The source made the active and inactive calls.

Tests used:
[1] = NIH-3T3 fibroblast cytotoxicity, dose response, cytotoxicity control, cell-based, fluorescence, Alamar Blue, secondary assay (AID 2327); format: functional;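 further: NIH-3T3 mouse fibroblasts cultured with fluconazole at 8 µg/mL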
[2] = fluconazole-exposed Candida albicans growth modulators – fluorescence, retest, confirmation (AID 2467); format: functional, cell-based
[3] = molecular target: T1, Protein skinhead-1 (Caenorhabditis elegans, UniProt P34707); format: functional
T1 sequence (P34707 whole entry): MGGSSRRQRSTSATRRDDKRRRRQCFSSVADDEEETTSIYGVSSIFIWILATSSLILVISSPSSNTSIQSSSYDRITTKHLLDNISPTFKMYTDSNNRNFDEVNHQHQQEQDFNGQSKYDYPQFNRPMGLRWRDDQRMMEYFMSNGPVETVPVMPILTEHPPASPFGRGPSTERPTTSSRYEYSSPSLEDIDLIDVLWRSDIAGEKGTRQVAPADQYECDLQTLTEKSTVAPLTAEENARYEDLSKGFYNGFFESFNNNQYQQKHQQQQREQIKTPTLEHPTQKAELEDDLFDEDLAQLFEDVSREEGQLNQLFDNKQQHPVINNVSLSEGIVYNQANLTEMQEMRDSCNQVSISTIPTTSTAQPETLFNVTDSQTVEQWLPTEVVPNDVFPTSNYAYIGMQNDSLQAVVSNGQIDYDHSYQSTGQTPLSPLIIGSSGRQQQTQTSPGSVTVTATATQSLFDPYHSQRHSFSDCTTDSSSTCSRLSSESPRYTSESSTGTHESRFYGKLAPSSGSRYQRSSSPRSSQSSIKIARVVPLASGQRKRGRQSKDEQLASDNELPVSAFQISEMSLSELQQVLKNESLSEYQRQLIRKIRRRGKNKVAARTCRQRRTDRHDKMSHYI

[4] = cells; settings: HEK293
[5] = molecular target: T2, Aminopeptidase N (Plasmodium falciparum FcB1/Columbia, UniProt O96935); assay: malaria alanyl aminopeptidase activity blockers – biochemical, fluorogenic H-Leu-NHMec substrate, 1536-well (AID 1445); design: species or system Plasmodium falciparum 3D7, 3D7
T2 sequence (O96935 whole entry): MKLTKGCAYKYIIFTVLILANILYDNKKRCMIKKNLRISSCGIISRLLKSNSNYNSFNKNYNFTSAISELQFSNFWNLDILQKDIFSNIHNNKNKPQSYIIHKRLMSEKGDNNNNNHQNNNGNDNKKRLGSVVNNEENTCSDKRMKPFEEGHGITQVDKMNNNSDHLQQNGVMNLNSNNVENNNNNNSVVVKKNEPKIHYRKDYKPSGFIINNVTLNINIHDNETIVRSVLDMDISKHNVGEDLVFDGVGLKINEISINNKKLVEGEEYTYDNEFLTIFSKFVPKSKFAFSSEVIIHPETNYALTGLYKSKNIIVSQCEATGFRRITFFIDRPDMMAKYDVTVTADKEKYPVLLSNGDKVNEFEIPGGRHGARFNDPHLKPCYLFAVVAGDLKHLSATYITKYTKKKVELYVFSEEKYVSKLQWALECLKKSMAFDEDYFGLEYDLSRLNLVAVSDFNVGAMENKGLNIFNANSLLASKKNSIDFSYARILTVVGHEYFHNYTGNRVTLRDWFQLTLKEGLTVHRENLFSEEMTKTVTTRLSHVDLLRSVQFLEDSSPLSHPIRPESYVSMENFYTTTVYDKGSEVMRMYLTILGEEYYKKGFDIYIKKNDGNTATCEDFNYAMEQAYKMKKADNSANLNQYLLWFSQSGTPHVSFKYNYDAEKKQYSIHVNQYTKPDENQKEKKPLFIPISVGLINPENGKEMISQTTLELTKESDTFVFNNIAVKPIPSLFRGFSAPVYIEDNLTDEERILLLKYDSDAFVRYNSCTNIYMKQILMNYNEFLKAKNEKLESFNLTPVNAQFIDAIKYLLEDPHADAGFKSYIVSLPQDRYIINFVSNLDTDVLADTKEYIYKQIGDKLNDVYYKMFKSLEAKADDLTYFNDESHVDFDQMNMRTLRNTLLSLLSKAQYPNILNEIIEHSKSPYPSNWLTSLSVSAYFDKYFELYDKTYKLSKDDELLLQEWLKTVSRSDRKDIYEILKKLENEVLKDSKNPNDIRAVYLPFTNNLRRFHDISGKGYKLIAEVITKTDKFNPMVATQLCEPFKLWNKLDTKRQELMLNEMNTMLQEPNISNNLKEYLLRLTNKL

[6] = molecular target: Endoplasmic reticulum aminopeptidase 1 (Homo sapiens, UniProt Q9NZ08); assay: inhibition of human ERAP1 enzyme activity – biochemical, cherry-pick, set 2, plate reader, dose response (AID 743314)
[7] = molecular target: Mitogen-activated protein kinase 10 (Homo sapiens, UniProt P53779); assay: Dose response biochemical screening assay for inhibitors of c-Jun N-Terminal Kinase 3 (JNK3). [Related pubchem assays: 746 ]
[8] = molecular target: T3, fMet-Leu-Phe receptor (Homo sapiens, UniProt P21462); assay: formyl peptide receptor binders – dose response (AID 519); format: functional
T3 sequence (P21462 whole entry): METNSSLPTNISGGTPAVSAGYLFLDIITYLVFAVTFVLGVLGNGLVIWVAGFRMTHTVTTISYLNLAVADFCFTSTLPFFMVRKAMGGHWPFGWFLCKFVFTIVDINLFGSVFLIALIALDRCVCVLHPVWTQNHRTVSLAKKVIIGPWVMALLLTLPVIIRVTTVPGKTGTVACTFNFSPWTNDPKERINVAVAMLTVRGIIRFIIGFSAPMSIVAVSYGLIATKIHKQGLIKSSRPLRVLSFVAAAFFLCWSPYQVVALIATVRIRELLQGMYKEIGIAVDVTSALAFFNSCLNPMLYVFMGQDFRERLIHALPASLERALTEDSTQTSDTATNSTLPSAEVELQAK

[9] = molecular target: Cytochrome P450 2D6 (Homo sapiens, UniProt P10635);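 further: CYP2D6 member of a cytochrome P450 panel assay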
[10] = molecular target: T4, Cytochrome P450 1A2 (Homo sapiens, UniProt P05177);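 further: PubChem cytochrome P450 panel assay, CYP1A2 panel member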
T4 sequence (P05177 whole entry): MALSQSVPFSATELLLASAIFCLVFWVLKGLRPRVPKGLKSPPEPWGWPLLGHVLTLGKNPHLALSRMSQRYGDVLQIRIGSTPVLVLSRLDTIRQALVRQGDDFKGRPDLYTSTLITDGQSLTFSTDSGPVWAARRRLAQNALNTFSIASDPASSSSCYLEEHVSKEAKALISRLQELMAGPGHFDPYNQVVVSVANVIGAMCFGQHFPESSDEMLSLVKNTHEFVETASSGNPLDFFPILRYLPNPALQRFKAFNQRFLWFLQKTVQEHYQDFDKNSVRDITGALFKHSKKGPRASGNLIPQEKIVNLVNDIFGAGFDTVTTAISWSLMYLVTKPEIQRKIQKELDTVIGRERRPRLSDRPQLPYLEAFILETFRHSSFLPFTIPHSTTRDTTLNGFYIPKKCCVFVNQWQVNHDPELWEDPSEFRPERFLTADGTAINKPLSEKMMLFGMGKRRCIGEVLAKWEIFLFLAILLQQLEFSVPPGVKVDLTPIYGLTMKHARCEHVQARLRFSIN

[11] = cytotoxicity in MITF-independent A375 cells – cell-based, CellTiter-Glo luminescence, dry powder, set 4, counter-screen for MITF inhibitor project, dose response (AID 624364); format: functional; settings: A-375;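 further: A375 melanoma cells are MITF independent so this is a counter screen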
[12] = viability loss in MITF-independent A375 cells – cell-based, CellTiter-Glo luminescence, dry powder, set 2, counter-screen for MITF inhibitor project, dose response (AID 624489); format: functional; settings: A-375;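 further: actives are compounds lowering A375 viability meaning general cytotoxicity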
[13] = molecular target: Peroxisome proliferator-activated receptor gamma/Nuclear receptor coactivator 1 (Homo sapiens, UniProt P37231); assay: (§1) TR-FRET dose response biochemical High Throughput Screening assay for agonists of the steroid receptor coactivator 1 (SRC-1) recruitment by the peroxisome proliferator-activated receptor gamma (PPAR gamma): non-selective agonists. [Related pubchem assays (depositor defined):AID1300, AID1808, AID504735, AID631]; format: protein assay
[14] = molecular target: Peroxisome proliferator-activated receptor gamma/Nuclear receptor coactivator 3 (Homo sapiens, UniProt P37231); assay: as §1, with “3 (SRC-3)” for “1 (SRC-1)”, “assays: 1301 (Confirmation screen.), 1048 (Primary screen.)]” for “assays (depositor defined):AID1300, AID1808, AID504735, AID631]”; format: functional
[15] = molecular target: Peroxisome proliferator-activated receptor gamma/Nuclear receptor coactivator 2 (Homo sapiens, UniProt P37231); assay: TR-FRET dose response biochemical High Throughput Screening assay for agonists of the steroid receptor coactivator 2 (SRC-2) recruitment by the peroxisome proliferator-activated receptor gamma (PPAR gamma): non-selective agonists. [Related pubchem assays: 1297, 1032 ]; format: functional
Sequence of Peroxisome proliferator-activated receptor gamma/Nuclear receptor coactivator 2 (P37231 whole entry): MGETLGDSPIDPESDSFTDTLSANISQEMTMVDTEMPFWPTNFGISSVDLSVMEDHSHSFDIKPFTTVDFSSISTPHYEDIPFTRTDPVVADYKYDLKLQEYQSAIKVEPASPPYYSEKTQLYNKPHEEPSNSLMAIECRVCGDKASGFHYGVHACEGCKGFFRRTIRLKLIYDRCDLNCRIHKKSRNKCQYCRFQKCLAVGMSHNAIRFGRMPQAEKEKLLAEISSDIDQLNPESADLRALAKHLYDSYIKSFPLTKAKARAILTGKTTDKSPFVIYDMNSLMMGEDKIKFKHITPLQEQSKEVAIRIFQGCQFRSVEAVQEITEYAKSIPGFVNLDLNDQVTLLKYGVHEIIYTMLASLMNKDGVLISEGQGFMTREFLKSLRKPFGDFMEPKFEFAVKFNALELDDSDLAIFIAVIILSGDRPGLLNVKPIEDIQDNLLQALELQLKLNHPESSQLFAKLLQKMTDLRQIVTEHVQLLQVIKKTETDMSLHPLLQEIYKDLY
Sequence of Peroxisome proliferator-activated receptor gamma/Nuclear receptor coactivator 2 (Q15596 whole entry, further chain): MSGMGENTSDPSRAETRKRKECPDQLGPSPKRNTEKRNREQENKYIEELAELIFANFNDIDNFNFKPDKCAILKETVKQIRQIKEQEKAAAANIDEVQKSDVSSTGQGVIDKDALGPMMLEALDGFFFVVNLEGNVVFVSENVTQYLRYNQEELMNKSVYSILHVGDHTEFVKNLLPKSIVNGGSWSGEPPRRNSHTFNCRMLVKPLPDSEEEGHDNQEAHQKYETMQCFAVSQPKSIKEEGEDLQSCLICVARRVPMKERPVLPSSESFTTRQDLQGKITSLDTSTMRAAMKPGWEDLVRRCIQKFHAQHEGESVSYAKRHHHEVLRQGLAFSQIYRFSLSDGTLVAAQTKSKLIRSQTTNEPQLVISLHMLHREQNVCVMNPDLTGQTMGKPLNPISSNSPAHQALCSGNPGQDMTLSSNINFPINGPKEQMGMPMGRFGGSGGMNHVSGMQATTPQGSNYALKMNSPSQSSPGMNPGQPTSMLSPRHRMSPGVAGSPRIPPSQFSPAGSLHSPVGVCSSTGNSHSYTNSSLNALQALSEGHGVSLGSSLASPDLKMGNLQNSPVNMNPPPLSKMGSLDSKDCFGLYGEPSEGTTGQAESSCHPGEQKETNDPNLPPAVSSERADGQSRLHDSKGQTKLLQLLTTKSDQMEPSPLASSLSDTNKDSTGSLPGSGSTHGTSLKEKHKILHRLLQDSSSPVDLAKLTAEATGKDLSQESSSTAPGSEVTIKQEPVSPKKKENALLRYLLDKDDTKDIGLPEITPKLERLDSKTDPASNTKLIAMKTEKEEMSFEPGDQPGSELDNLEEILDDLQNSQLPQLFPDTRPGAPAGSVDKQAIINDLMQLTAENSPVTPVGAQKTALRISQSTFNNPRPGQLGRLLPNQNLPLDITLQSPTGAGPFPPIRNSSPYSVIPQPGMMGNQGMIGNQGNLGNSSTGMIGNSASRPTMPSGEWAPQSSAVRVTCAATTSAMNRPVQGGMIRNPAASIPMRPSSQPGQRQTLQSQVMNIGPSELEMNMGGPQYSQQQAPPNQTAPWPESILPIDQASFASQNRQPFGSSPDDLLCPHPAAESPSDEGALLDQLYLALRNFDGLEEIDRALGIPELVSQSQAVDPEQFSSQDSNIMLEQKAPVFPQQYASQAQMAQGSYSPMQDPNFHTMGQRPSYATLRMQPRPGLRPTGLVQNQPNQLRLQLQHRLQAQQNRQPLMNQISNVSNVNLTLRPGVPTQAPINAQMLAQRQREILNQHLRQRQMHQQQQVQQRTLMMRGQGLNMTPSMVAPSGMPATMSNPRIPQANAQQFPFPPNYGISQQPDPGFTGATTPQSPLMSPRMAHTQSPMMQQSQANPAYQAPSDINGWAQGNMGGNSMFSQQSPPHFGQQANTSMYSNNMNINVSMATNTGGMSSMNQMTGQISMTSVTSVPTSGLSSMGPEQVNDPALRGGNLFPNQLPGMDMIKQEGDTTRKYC

Sequence of Peroxisome proliferator-activated receptor gamma/Nuclear receptor coactivator 3 (P37231 whole entry): as the sequence (P37231 whole entry) above
Sequence of Peroxisome proliferator-activated receptor gamma/Nuclear receptor coactivator 3 (Q9Y6Q9 whole entry, further chain): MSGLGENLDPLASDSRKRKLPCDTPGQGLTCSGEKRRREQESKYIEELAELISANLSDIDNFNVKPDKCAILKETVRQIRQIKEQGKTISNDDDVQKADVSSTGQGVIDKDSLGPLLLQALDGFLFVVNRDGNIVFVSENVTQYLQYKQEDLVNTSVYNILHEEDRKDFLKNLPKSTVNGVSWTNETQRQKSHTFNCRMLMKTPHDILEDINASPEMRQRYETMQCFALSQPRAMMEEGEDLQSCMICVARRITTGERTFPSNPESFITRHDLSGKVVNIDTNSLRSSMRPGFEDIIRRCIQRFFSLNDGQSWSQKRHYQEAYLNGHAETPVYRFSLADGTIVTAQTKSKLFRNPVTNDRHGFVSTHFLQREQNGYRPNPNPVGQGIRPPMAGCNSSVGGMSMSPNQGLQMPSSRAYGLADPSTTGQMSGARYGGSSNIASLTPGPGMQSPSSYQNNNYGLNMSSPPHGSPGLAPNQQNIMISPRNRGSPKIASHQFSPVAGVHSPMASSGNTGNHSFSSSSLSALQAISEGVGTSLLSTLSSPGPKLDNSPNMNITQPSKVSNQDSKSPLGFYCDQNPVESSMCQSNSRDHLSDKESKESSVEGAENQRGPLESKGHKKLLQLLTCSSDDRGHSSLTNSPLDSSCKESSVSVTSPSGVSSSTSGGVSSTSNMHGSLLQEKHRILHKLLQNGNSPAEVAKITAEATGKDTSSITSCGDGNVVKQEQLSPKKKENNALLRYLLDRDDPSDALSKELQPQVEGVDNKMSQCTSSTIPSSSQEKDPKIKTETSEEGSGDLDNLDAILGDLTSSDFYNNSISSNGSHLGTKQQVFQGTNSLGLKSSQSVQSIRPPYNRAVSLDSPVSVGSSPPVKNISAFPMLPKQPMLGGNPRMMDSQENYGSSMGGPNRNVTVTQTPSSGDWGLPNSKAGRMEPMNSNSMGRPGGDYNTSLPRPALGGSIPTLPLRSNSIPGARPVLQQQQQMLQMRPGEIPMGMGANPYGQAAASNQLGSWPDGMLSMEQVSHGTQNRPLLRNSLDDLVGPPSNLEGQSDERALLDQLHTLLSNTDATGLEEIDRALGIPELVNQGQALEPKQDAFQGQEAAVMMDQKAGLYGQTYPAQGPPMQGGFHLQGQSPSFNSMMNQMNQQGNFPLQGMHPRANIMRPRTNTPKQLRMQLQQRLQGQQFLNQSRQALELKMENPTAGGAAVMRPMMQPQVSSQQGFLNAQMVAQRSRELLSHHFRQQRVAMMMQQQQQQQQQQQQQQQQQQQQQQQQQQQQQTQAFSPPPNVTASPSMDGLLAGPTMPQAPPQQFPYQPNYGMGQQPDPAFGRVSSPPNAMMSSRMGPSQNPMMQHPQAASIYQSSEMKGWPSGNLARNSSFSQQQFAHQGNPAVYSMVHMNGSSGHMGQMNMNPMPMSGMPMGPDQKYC
Sequence of Mitogen-activated protein kinase 10 (P53779 whole entry): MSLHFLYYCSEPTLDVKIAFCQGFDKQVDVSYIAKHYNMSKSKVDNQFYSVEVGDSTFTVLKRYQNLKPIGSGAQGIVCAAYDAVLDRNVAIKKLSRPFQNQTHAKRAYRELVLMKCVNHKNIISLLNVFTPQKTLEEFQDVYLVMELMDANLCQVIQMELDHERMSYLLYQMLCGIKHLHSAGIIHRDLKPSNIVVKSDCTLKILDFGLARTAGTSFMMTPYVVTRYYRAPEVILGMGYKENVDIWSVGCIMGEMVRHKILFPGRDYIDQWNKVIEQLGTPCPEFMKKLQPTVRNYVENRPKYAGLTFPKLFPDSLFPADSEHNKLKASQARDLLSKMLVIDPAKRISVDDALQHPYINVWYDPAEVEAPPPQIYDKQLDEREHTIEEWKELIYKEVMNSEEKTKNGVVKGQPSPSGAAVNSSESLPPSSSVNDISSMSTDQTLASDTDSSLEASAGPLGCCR
Sequence of Cytochrome P450 2D6 (P10635 whole entry): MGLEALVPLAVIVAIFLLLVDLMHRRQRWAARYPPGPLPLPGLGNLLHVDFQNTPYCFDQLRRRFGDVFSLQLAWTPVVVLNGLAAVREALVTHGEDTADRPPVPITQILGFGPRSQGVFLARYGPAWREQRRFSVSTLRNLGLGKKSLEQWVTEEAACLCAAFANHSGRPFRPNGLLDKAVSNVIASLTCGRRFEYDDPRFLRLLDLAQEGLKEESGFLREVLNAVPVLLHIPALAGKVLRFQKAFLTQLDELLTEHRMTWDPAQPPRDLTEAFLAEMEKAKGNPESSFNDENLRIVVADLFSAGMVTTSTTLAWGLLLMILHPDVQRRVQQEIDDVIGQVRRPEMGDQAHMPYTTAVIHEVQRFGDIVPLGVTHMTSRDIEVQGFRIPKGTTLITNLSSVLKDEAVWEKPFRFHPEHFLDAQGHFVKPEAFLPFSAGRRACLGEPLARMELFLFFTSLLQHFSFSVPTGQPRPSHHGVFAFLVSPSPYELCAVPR

- IC50 [5]: 33.6 µM (active)
- AC50 [6]: 6.77 µM (active)
Compound: Cc1cc(=O)oc2c(CN3CCN(C)CC3)c(O)c(Cl)cc12

- IC50 [7]: 37.4 µM (not active)
- Ki [8]: > 66.7 µM (inactive)
- AC50 [9]: 12.6 µM (inconclusive)
- AC50 [10]: 39.8 µM (inconclusive)
Compound: Cc1ccc(C(=O)C2=C(O)C(=O)N(CCCn3ccnc3)C2c2ccc(OC(C)C)cc2)o1 (stereo not drawn)

- EC50 [13]: > 79.4 µM (inactive)
- EC50 [14]: > 79.4 µM (not active)
- EC50 [15]: 37.9 µM (not active)
- Ki [8]: > 66.7 µM (inactive)
Compound: COc1ccc(C(=O)C2=C(O)C(=O)N(c3nc(C)c(C)s3)C2c2ccco2)cc1 (stereo not drawn)

- Ki [8]: 20.4 µM (inactive)
Compound: Cc1nn2c(O)c3c(nc2c1-c1ccccc1)CCC3

The next lines start with the compound.

Compound: CCc1cccc(C)c1N=C(S)NCc1ccc2c(c1)cc(C)n2C
- EC50 [1]: 51.5 µM (active)
- EC50 [2]: > 38 µM (not active)
- IC50 [3]: > 100 µM (inactive)
- AC50 [4]: > 52 µM (inactive)

Compound: CCCOc1c(Br)cc(C2C3=C(CCCC3=O)N(C)C3=C2C(=O)CCC3)cc1OC
- AC50 [4]: > 52 µM (inactive)

Compound: CC(=O)N(C)C1=C(N2CCCCC2)C(=O)c2ccccc2C1=O
- AC50 [11]: 27.1 µM (active)
- AC50 [12]: 14.8 µM (active)
